In US20240308987A1, “SMALL MOLECULE INHIBITOR AGAINST NASOPHARYNGEAL CARCINOMA, PREPARATION METHOD AND APPLICATION THEREOF” (SHENZHEN BAY LABORATORY, priority 2021, published 2024) one finds EC50 data, which are given here for 32 compounds.

Structures are written as SMILES. A value given as a limit tells only on which side of the number the result lay.

This assay relates to C666-1 cells. As to the kind of experiment: C666-1 Cell Viability Assay (Resazurin cytotoxicity test). The format is cell-based. To be noted: Homo sapiens, C6661, EB virus-positive C666-1 cells, 72 hours treatment, 100-0.78 micromole/L, read-out: Inhibitory Rate. The protocol: In order to evaluate the inhibitory effect of the small molecular compound of the present disclosure on EBNA1 at the cellular level, a cytotoxicity test was performed.
As mentioned in the Background of the present disclosure, nasopharyngeal carcinoma is a kind of disease highly associated with latent infection of EB virus. EB virus in latent state only expresses limited proteins to maintain its genome replication, among which EBNA1 protein is an essential functional protein. Studies have confirmed that inhibition of EBNA1 can reduce the proliferation of the corresponding nasopharyngeal carcinoma cells or kill them. Therefore, EB virus-positive nasopharyngeal carcinoma tumor cells (C666-1 cells) are selected for test to verify the effect of the small molecular compound of the present disclosure.
During testing, 100 microliters of different cell lines were inoculated onto a transparent 96-well plate, and 5×10^3 cells were inoculated in each well for C666-1 cells. After the cells were cultured in an incubator under […] at 37° C. for 24 hours, 10 microliters of compound with a concentration ranging from 1 mmol/L to 7.8 micromol/L were added to each well (8 points, double dilution, the final concentration was 100-0.78 micromole/L), and treated in the incubator under carbon dioxide at 37° C. for 72 hours. Cell viability was assessed using the redox indicator Resazurin. After addition of 10 microliters of 600 micromole/liter Resazurin to each well and incubation at 37° C. for 3 hours. Using a Tecan microplate reader, the fluorescence signals were detected at an […]. A software was used to fit the inhibition curve and calculate half-maximal effect concentration (EC50). The selectivity of compound activity was assessed by comparing the EC50 values of EB virus-positive and EB virus-negative cell lines.
For orientation: The colour change of resazurin is a common sign of viable cells or microbes.

As to `Cc1cncc(NC(=O)Nc2ccc(OC3CN(c4cccc(C(=O)O)c4-n4cccc4)C3)cc2)c1` [Example 47a, 3-(3-(4-(3-(5-methylpyridin-3-yl)ureido)phenoxy)azetidin-1-yl)-2-(1H-pyrrol-1-yl) benzoic acid], the EC50 was less than 1 µM. Regarding `O=C(Cc1cccnc1)Nc1ccc(OC2CN(c3cccc(C(=O)O)c3-n3cccc3)C2)cc1F` [Example 52a, 3-(3-(3-fluoro-4-(2-(pyridin-3-yl)acetamido)phenoxy)azetidin-1-yl)-2-(1H-pyrrol-1-yl) benzoic acid], the EC50 was less than 1 µM. On to `Cn1ccc(OCc2ccc(OC3CN(c4cccc(C(=O)O)c4-n4cccc4)C3)cc2)n1` [Example 32a, 3-(3-(4-(((1-methyl-1H-pyrazol-3-yl)oxy)methyl)phenoxy)azetidin-1-yl)-2-(1H-pyrrol-1-yl) benzoic acid], for which the EC50 is more than 50 µM. As for `COC(=O)c1cccc(N2CC(Oc3ccc(COc4ccn(C)n4)cc3)C2)c1-n1cccc1` [Example 32, methyl 3-(3-(4-(((1-methyl-1H-pyrazol-3-yl)oxy)methyl)phenoxy)azetidin-1-yl)-2-(1H-pyrrol-1-yl) benzoate], the figure is more than 50 µM; as for `O=C(O)c1cccc(N2CC(Oc3ccc(COc4cccnc4)cc3)C2)c1-n1cccc1` [Example 1a, 3-(3-(4-((pyridin-3-yloxy)methyl)phenoxy)azetidin-1-yl)-2-(1H-pyrrol-1-yl) benzoic acid], 1 to 10 µM; as for `O=C(Cc1ccc(OC2CN(c3cccc(C(=O)O)c3)C2)cc1)Nc1cccnc1` [Example 43a, 3-(3-(4-(2-oxo-2-(pyridin-3-ylamino)ethyl)phenoxy)azetidin-1-yl) benzoic acid], 1 to 10 µM.

With `O=C(Nc1ccc(OC2CN(c3cccc(C(=O)NO)c3-n3cccc3)C2)cc1)c1cccnc1` [Example 31b, N-(4-((1-(3-(hydroxycarbamoyl)-2-(1H-pyrrol-1-yl)phenyl)azetidin-3-yl)oxy)phenyl) nicotinamide], the EC50 is less than 1 µM. Then `Cc1ccncc1OCc1ccc(OC2CN(c3cccc(C(=O)O)c3-n3cccc3)C2)cc1` [Example 2a, 3-(3-(4-((4-methylpyridin-3-yloxy)methyl)phenoxy)azetidin-1-yl)-2-(1H-pyrrol-1-yl) benzoic acid], with more than 50 µM; and `O=C(O)c1cccc(N2CC(Oc3ccc(Oc4cccnc4)cc3)C2)c1-n1cccc1` [Example 25a, 3-(3-(4-(pyridin-3-yloxy)phenoxy)azetidin-1-yl)-2-(1H-pyrrol-1-yl) benzoic acid], with more than 50 µM. Turning to `O=C(Cc1ccc(C#Cc2cccc(C(=O)O)c2-c2ccccc2)cc1)Nc1cccnc1` [Example 60a, 6-((4-(2-oxo-2-(pyridin-3-ylamino)ethyl)phenyl)ethynyl)-[1,1′-biphenyl]-2-carboxylic acid], the EC50 is less than 1 µM. Turning to `O=C(Nc1ccc(OC2CN(c3cccc(C(=O)NO)c3-n3cccc3)C2)cc1)Nc1cccc(C(F)(F)F)c1` [Example 10b, N-hydroxy-2-(1H-pyrrol-1-yl)-3-(3-(4-(3-(3-(trifluoromethyl)phenyl)ureido)phenoxy)azetidin-1-yl) benzamide], the EC50 is 1 to 10 µM.

As for `O=C(NO)c1cccc(N2CC(Oc3ccc(OCc4cccnc4)cc3)C2)c1-n1cccc1` [Example 24b, N-hydroxy-3-(3-(4-(pyridin-3-ylmethoxy)phenoxy)azetidin-1-yl)-2-(1H-pyrrol-1-yl) benzamide], the EC50 was less than 1 µM. Regarding `CNC(=O)c1cccc(N2CC(Oc3ccc(CC(=O)Nc4cccnc4)cc3)C2)c1-c1ccccc1` [Example 40c, N-methyl-6-(3-(4-(2-oxo-2-(pyridin-3-ylamino)ethyl)phenoxy)azetidin-1-yl)-[1,1′-biphenyl]-2-carboxamide], the EC50 lay within 1 to 10 µM. For `COC(=O)c1cccc(C#Cc2ccc(NC(=O)Nc3cccnc3)c(O)c2)c1-c1ccccc1` [Example 22, methyl 6-((3-hydroxy-4-(3-(pyridin-3-yl)ureido)phenyl)ethynyl)-[1,1′-biphenyl]-2-carboxylate], the EC50 is less than 1 µM. Then `O=C(O)c1cccc(N2CC(Oc3ccc(COc4cccs4)cc3)C2)c1-n1cccc1` [Example 30a, 2-(1H-pyrrol-1-yl)-3-(3-(4-((thiophen-2-yloxy)methyl)phenoxy)azetidin-1-yl) benzoic acid], with more than 50 µM; and `COC(=O)c1cccc(N2CC(Oc3ccc(COCc4cccnc4)cc3)C2)c1-n1cccc1` [Example 27, methyl 3-(3-(4-((pyridin-3-ylmethoxy)methyl)phenoxy)azetidin-1-yl)-2-(1H-pyrrol-1-yl) benzoate], with 10 to 50 µM; and `COc1ccc(OCc2ccc(OC3CN(c4cccc(C(=O)O)c4-n4cccc4)C3)cc2)cn1` [Example 4a, 3-(3-(4-(((6-methoxypyridin-3-yl)oxy)methyl)phenoxy)azetidin-1-yl)-2-(1H-pyrrol-1-yl) benzoic acid], with more than 50 µM.

For the compound `O=C(O)c1cccc(N2CC(Oc3ccc(COCc4cccnc4)cc3)C2)c1-n1cccc1` [Example 27a, 3-(3-(4-((pyridin-3-ylmethoxy)methyl)phenoxy)azetidin-1-yl)-2-(1H-pyrrol-1-yl) benzoic acid], the EC50 is more than 50 µM. For `COC(=O)c1cccc(N2CC(Oc3ccc(COc4cnccc4C)cc3)C2)c1-n1cccc1` [Example 2, methyl 3-(3-(4-((4-methylpyridin-3-yloxy)methyl)phenoxy)azetidin-1-yl)-2-(1H-pyrrol-1-yl) benzoate], the EC50 was more than 50 µM. Consider `COC(=O)c1cccc(N2CC(Oc3ccc(NC(=O)c4cccnc4)cc3)C2)c1-n1cccc1` [Example 31, methyl 3-(3-(4-(nicotinamido)phenoxy)azetidin-1-yl)-2-(1H-pyrrol-1-yl) benzoate], for which the EC50 fell in the range of 10 to 50 µM. For the compound `COC(=O)c1cccc(N2CC(Oc3ccc(COc4ccc(C)nc4)cc3)C2)c1-n1cccc1` [Example 5, methyl 3-(3-(4-((6-methylpyridin-3-yloxy)methyl)phenoxy)azetidin-1-yl)-2-(1H-pyrrol-1-yl) benzoate], the EC50 is more than 50 µM. As for `COC(=O)c1cccc(N2CC(Oc3ccc(Oc4ccncc4)cc3)C2)c1-n1cccc1` [Example 26, methyl 3-(3-(4-(pyridin-4-yloxy)phenoxy)azetidin-1-yl)-2-(1H-pyrrol-1 - yl) benzoate], the figure is 1 to 10 µM; as for `O=C(NO)c1cccc(N2CC(Oc3ccc(/C=C/c4cccnc4)cc3)C2)c1-c1ccccc1` [Example 36b, (E)-N-hydroxy-6-(3-(4-(2-(pyridin-3-yl)vinyl)phenoxy)azetidin-1-yl)-[1,1′-biphenyl]-2-carboxamide], less than 1 µM.

Take `O=C(O)c1cccc(N2CC(Oc3ccc(CNc4cccnc4)cc3)C2)c1-c1cccc(Cl)c1` [Example 38a, 3′-chloro-6-(3-(4-((pyridin-3-ylamino)methyl)phenoxy)azetidin-1-yl)-[1,1′-biphenyl]-2-carboxylic acid]: the EC50 is 10 to 50 µM. Turning to `COC(=O)c1cccc(N2CC(Oc3ccc(CNc4cccnc4)cc3)C2)c1-c1ccccc1` [Example 39, methyl 6-(3-(4-((pyridin-3-ylamino)methyl)phenoxy)azetidin-1-yl)-[1,1′-biphenyl]-2-carboxylate], the EC50 is more than 50 µM.

With `COC(=O)c1cccc(N2CC(Oc3ccc(CC(=O)Nc4cccnc4)cc3)C2)c1` [Example 43, methyl 3-(3-(4-(2-oxo-2-(pyridin-3-ylamino)ethyl)phenoxy)azetidin-1-yl) benzoate], the EC50 is 1 to 10 µM. As to `O=C(O)c1cccc(N2CC(Oc3ccc(/C=C/c4cccnc4)cc3)C2)c1-n1cccc1` [Example 28a, (E)-3-(3-(4-(2-(pyridin-3-yl)vinyl)phenoxy)azetidin-1-yl)-2-(1H-pyrrol-1-yl) benzoic acid], the EC50 lay in the range of 1 to 10 µM.

Regarding `COC(=O)c1cccc(N2CC(Oc3ccc(COc4cncc(OC)c4)cc3)C2)c1-n1cccc1` [Example 6, methyl 3-(3-(4-(((5-methoxypyridin-3-yl)oxy)methyl)phenoxy)azetidin-1-yl)-2-(1H-pyrrol-1-yl) benzoate], the EC50 was more than 50 µM. For the compound `O=C(O)c1cccc(N2CC(Oc3ccc(CNc4cccnc4)cc3)C2)c1-c1ccccc1` [Example 39a, 6-(3-(4-((pyridin-3-ylamino)methyl)phenoxy)azetidin-1-yl)-[1,1′-biphenyl]-2-carboxylic acid], the EC50 was more than 50 µM. Then `COC(=O)c1cccc(C#Cc2ccc(NC(=O)Nc3cccnc3)cc2)c1-c1cccc(O)c1` [Example 63, methyl 3′-hydroxyl-6-((4-(3-(pyridin-3-yl)ureido)phenyl)ethynyl)-[1,1′-biphenyl]-2-carboxylate], with less than 1 µM; and `O=C(Nc1ccc(OC2CN(c3cccc(C(=O)O)c3-n3cccc3)C2)cc1)c1cccnc1` [Example 31a, 3-(3-(4-(nicotinoamido)phenoxy)azetidin-1-yl)-2-(1H-pyrrol-1-yl) benzoic acid], with 10 to 50 µM.

In the case of `CNC(=O)c1cccc(N2CC(Oc3ccc(COc4cccnc4)cc3)C2)c1-n1cccc1` [Example 1d, N-methyl-3-(3-(4-((pyridin-3-yloxy)methyl)phenoxy)azetidin-1-yl)-2-(1H-pyrrol-1-yl) benzamide], the EC50 is less than 1 µM.
